Data on one sequence can be found in patent publication US20260070944A1, “PEPTIDE PROMOTING TYROSINASE ACTIVITY AND USE THEREOF” (HYSENSBIO CO., LTD, priority 2022, published 2026).

Where no end group is shown, it is not given here.

In the data set the test system is B16F10 cells. The experiment in a line: MTT assay, cell viability. Type of data set: cell-based. Here is the method:
A melanocyte (B16F10) cell line was cultured using DMEM containing 10% FBS and 1% penicillin/streptomycin (PS) at 37° C. in a 5% CO2 incubator.
An MTT reagent was used by being diluted in DMEM at a concentration of 0.5 mg/mL.
B16F10 cells were seeded at 230,000 cells/well in a 6-well plate, and cultured at 37° C. in a 5% CO2 incubator for 24 hours. Subsequently, the cells were treated with peptide KH001 (SEQ ID NO: 96) at different concentrations for 72 hours to prepare the cells, and then the MTT reagent was added and allowed to react in a 37° C. incubator for 1 hour under light blocking conditions. After removing the entire medium, the generated formazan was dissolved in DMSO, and then absorbance was measured at 560 nm.
B16F10 cells were treated with the KH001 peptide at different concentrations. After 72 hours after KH001 peptide treatment, cell viability was measured using an MTT assay.

Take KYKQKRRSYK [KH001, KYKQKRRSYK]: the “cell viability compared to the control” value (50 μM, 100 μM and 200 μM, 72 hours, MTT) is “no significant difference”. Besides, under “at the predetermined concentrations (50, 100, 200 μM)”, the toxicity result is listed as “no toxicity”.
